Test results: PMC11845477, “Exploring the principles behind antibiotics with limited resistance” (Nature Communications, 2025)

What was measured:
Assay in all cases: microbe, parasite or virus in culture
[1] = tested on: T1, Acinetobacter baumannii ATCC BAA 1605; set-up: CLSI broth microdilution MIC; OD600 < 0.05 counted as complete growth inhibition; conditions: Acinetobacter baumannii, BAA1605, 18 h; read-out: MIC of ancestor
T1 construct: ATCC BAA-1605
Experimental: (§1) A final concentration of 5 × 10^5 bacterial cells per mL were inoculated into each well containing 60 µL MHB medium. Bacterial cultures were incubated at 37 °C with continuous shaking (Infors shaker, 900 rpm with 3 mm throw) for 18 hours (2 replicates from each). Cell growth was monitored by measuring the optical density (OD600 values, using Biotek Synergy microplate reader). MIC was defined as the antibiotic concentration of complete growth inhibition (i.e., OD600 < 0.05). Relative MIC was calculated as follows:1 relativeMIC=MICevolved/MICancestor This study focused on multiple bacterial strains, as follows. For the FoR and ALE experiments, 2 strains per species were chosen: E. coli ATCC 25922, K. pneumoniae ATCC 10031, A. baumannii ATCC 17978, and P. aeruginosa ATCC BAA-3107 as sensitive (SEN) strains, and E. coli NCTC13846, K. pneumoniae ATCC 700603, A. baumannii ATCC BAA-1605 and P. aeruginosa LESB58 as multi-drug resistant (MDR) strains. Functional metagenomic screens were performed with E. coli ATCC 25922 and K. pneumoniae ATCC 10031 strains. To determine the dose-kill properties of the different antibiotics, an E. coli strain (ATCC 25922) expressing a yellow fluorescent protein (pZS2R, YFP, CHL^R) and a red fluorescent protein (pZS2R, mCherry, CHL^R) was used.

[2] = tested on: T2, Klebsiella pneumoniae ATCC 10031; set-up: CLSI broth microdilution MIC; OD600 < 0.05 counted as complete growth inhibition; conditions: Klebsiella pneumoniae, ATCC10031, 18 h; read-out: MIC of ancestor
T2 construct: ATCC 10031
Experimental: as §1

[3] = tested on: T3, Acinetobacter baumannii ATCC 17978; set-up: CLSI broth microdilution MIC; OD600 < 0.05 counted as complete growth inhibition; conditions: Acinetobacter baumannii, ATCC17978, 18 h; read-out: MIC of ancestor
T3 construct: ATCC 17978
Experimental: as §1

[4] = tested on: T4, Escherichia coli ATCC 25922; set-up: CLSI broth microdilution MIC; OD600 < 0.05 counted as complete growth inhibition; conditions: Escherichia coli, ATCC25922, 18 h; read-out: MIC of ancestor
T4 construct: ATCC 25922
Experimental: as §1

[5] = tested on: T5, Escherichia coli NCTC 13846; set-up: CLSI broth microdilution MIC; OD600 < 0.05 counted as complete growth inhibition; conditions: Escherichia coli, NCTC13846, 18 h; read-out: MIC of ancestor
T5 construct: NCTC 13846
Experimental: as §1

[6] = tested on: T6, Klebsiella pneumoniae ATCC 700603; set-up: CLSI broth microdilution MIC; OD600 < 0.05 counted as complete growth inhibition; conditions: Klebsiella pneumoniae, ATCC700603, 18 h; read-out: MIC of ancestor
T6 construct: ATCC 700603
Experimental: as §1

E. coli ATCC 25922 = tested on: E. coli ATCC 25922; set-up: Serial broth microdilution MIC (CLSI), OD600 below 0.05, 384-well plates, MHB medium; conditions: Escherichia coli, ATCC25922, 18 h; ancestor strain before evolution
Experimental: as §1

[7] = tested on: T7, K. pneumoniae ATCC 700603 (MDR); set-up: Serial broth microdilution MIC (CLSI), OD600 below 0.05, 384-well plates, MHB medium; conditions: Klebsiella pneumoniae, ATCC700603, 18 h; ancestor strain before evolution
T7 construct: ATCC 700603
Experimental: as §1

A. baumannii ATCC 17978 = tested on: T8, A. baumannii ATCC 17978; set-up: Serial broth microdilution MIC (CLSI), OD600 below 0.05, 384-well plates, MHB medium; conditions: Acinetobacter baumannii, ATCC17978, 18 h; ancestor strain before evolution
T8 construct: ATCC 17978
Experimental: as §1

E. coli NCTC13846 (MDR) = tested on: T9, E. coli NCTC13846 (MDR); set-up: Serial broth microdilution MIC (CLSI), OD600 below 0.05, 384-well plates, MHB medium; conditions: Escherichia coli, NCTC13846, 18 h; ancestor strain before evolution
T9 construct: NCTC 13846
Experimental: as §1

K. pneumoniae ATCC 10031 = tested on: T10, K. pneumoniae ATCC 10031; set-up: Serial broth microdilution MIC (CLSI), OD600 below 0.05, 384-well plates, MHB medium; conditions: Klebsiella pneumoniae, ATCC10031, 18 h; ancestor strain before evolution
T10 construct: ATCC 10031
Experimental: as §1

SMILES | MIC [1] | MIC [2] | MIC [3] | MIC [4] | MIC [5] | MIC [6] | MIC (E. coli ATCC 25922) | MIC [7] | MIC (A. baumannii ATCC 17978) | MIC (E. coli NCTC13846 (MDR)) | MIC (K. pneumoniae ATCC 10031)
CC(C)c1ccc(Cn2ccc3c4c(N)nc(NC5CC5)nc4ccc32)cc1 [SCH, SCH79797] | 4 µg/mL | 4 µg/mL | 4 µg/mL | 4 µg/mL |  |  |  |  |  |  | 
C[C@@H](O)[C@H]1C(=O)N2C(C(=O)O)=C(S[C@H]3CC[S@@+]([O-])C3)S[C@H]12 [SUO, sulopenem] |  | 0.0312 µg/mL | 1 µg/mL | 0.0312 µg/mL | 0.0312 µg/mL | 0.5 µg/mL |  |  |  |  | 
C[C@@H](O)[C@H]1C(=O)N2C(C(=O)O)=C(S[C@H]3CC[S@@+]([O-])C3)S[C@H]12 [sulopenem] |  |  |  |  |  |  | 0.0312 µg/mL | 0.5 µg/mL | 1 µg/mL | 0.0312 µg/mL | 0.0312 µg/mL
